Assays:
[1] = system: HFF cells; experiment: Cell cycle analysis (PI flow cytometry); type: cell-based, human; conditions: 3 μM, three days
Experimental: (§1) Cell cycle analysis. Following treatment with 6-thio-dG or DMSO, cells were collected in PBS, fixed with ice-cold 70% ethanol and were kept in −20° C. for at least an hour. Cells were then washed and stained with propidium iodide (PI) solution containing 25 μg/mL PI (Sigma), and 100 μg/mL Ribonuclease-A (Sigma) for 30 minutes in the dark. Flow cytometry was performed on BD FACS Canto II and cells were analyzed using FlowJo v.10 (FlowJo, USA) software.

[2] = system: HFF+hTERT cells; experiment: Cell cycle analysis (PI flow cytometry); type: cell-based, human
Experimental: as §1

[3] = system: MB004 cells; experiment: Sphere formation assay; type: cell-based, human; conditions: 3 μM, day 7
Experimental: (§2) Cell growth and sphere formation assay. After dissociating primary neurospheres by TrypLE express (Gibco), single cells were seeded in respective growth media in 6-well plates and were incubated for one week at varying concentrations (0.5 to 10 μM) of 6-thio-dG or DMSO. Fresh culture media were added every three days. Viable cell numbers were determined by trypan blue exclusion method. For sphere formation assay, MB004 single cells were seeded in limited dilution (10 cells/well in 96-well plate) and treated with DMSO or 6-thio-dG. Sphere formation was monitored by microscopy.

[4] = system: CCHMC-DIPG-1; experiment: Cell growth assay (viable cell count, trypan blue exclusion); type: cell-based; conditions: Homo sapiens, 168 h, 6-thio-dG treatment for 7 days
Experimental: as §2

[5] = system: HeLa; experiment: as above; type: cell-based; conditions: Homo sapiens, 168 h, 6-thio-dG treatment for 7 days
Experimental: as §2

[6] = system: SU-DIPG-VI; experiment: as above; type: cell-based; conditions: Homo sapiens, 168 h, 6-thio-dG treatment for 7 days
Experimental: as §2

[7] = system: R0315-GBM; experiment: as above; type: cell-based; conditions: Homo sapiens, 168 h, 6-thio-dG treatment for 7 days
Experimental: as §2

[8] = system: U2OS cells; experiment: Cell growth and viability after drug removal; type: cell-based, human; conditions: 3 mM 6-thio-dG for 3 days followed by 10-days post-drug removal (FIG. 10C)
[9] = system: HFF + hTERT; experiment: Cell growth assay (viable cell count, trypan blue exclusion); type: cell-based, human; conditions: Homo sapiens, 168 h; 6-thio-dG treatment for 7 days; HFF + hTERT
[10] = system: CCHMC-DIPG-1 cells; experiment: Apoptosis, cleaved caspase-3; type: cell-based, human; conditions: 3 μM for 4 or 7 days; data not shown
Experimental: (§3) Immunofluorescence and telomere FISH assay. Cells were fixed with 4% paraformaldehyde (PFA) for 15 minutes. Cells were then washed, permeabilized with 0.5% Triton-X-100 in PBS, blocked with 5% donkey serum and 0.3% Triton X-100 in TBS and incubated with primary antibodies against γH2A.X (1:500, rabbit), or cleaved caspase-3 (1:400, rabbit) (Cell Signaling); and/or TRF2 (1:200) (Mouse; NOVUS), as applicable, for overnight followed by TBST wash (×3) next day. Corresponding secondary antibodies were added (Alexa-Fluor 488- or 594-conjugated donkey anti-rabbit, or anti-mouse (1:500) (Jackson ImmunoResearch) for 1 hour and washed with TBS (×3) before mounting. For telomere-FISH, fixed and permeabilized cells were dehydrated with a graded ethanol concentration series, air-dried and covered with hybridization solution (70% formamide, 0.5% Blocking Reagent (Roche Diagnostics) diluted in 100 mM maleic acid and 150 mM sodium chloride, and 10 mM Tris (pH 7.5)) with 300 ng/mL PNA(CCCTAA)3-Cy3 (SEQ ID NO: 1) (Biosynthesis, USA), and denatured for 6 minutes at 84° C. followed by hybridization for at least two hours at room temperature. Cells were washed three times with 70% formamide and 10 mM Tris (pH 7.5) and three times with TBS. […]
(§4) Western blot. […] Band intensities were quantified using ImageJ software (Ver. 1.49u, NIH, USA).

[11] = system: MB004 cells; experiment: Apoptosis, cleaved caspase-3; type: cell-based, human; conditions: 3 μM for 4 or 7 days; data not shown
Experimental: as §3, §4

## Nc1nc2c(ncn2[C@H]2C[C@H](O)[C@@H](CO)O2)c(=S)[nH]1 [6-thio-dG, 6-thio-2′-deoxyguanosine]
[1]
  G2/M arrest effect: negligible
[2]; 3 μM 3 days, then drug removed
  cell cycle profile after drug removal: partially reverted to that of the vehicle control
[2]; 3 μM, three days
  cell cycle progression: caused G2/M arrest
[3]
  sphere formation ability: total abolition of sphere formation ability
[4]
  IC50: 655 nM
[5]
  IC50: 143 nM
[6]
  IC50: 772 nM
[7]
  IC50: 1250 nM
[8]
  cell death / viability: predominantly did not die
[9]
  IC50: 179 nM
[10]
  cleaved caspase-3 signal (apoptosis): increase in cleaved caspase-3 signal
[11]
  cleaved caspase-3 signal (apoptosis): increase in cleaved caspase-3 signal

Source: patent publication US12594293B2, “Use of 6-thio-dG to treat therapy-resistant telomerasepositive pediatric brain tumors” (The Board of Regents of The University of Texas System, priority 2018, dated 2026)
